The source of these data is ChEMBL document CHEMBL2034920, “Protuboxepin A, a marine fungal metabolite, inducing metaphase arrest and chromosomal misalignment in tumor cells” (Bioorg Med Chem, 2012).

As usually defined, the Kd is a measure of binding affinity in units of concentration. A lower Kd goes with tighter binding.

Assay [1] deals with Hep 3B2. Description: Induction of apoptosis in human Hep3B cells assessed as roundup morphology after 24 hrs by microscopic analysis. Type of assay: functional, cell-based.
The test system of assay [2] is Hep 3B2. As to the kind of experiment: Induction of apoptosis in human Hep3B cells assessed as roundup morphology after 48 hrs by microscopic analysis. It is filed as functional, cell-based.
Assay [3] has as its system MDA-MB-231. Description: Induction of apoptosis in human MDA-MB-231 cells assessed as roundup morphology after 24 hrs by microscopic analysis. It is filed as functional, cell-based.
Assay [4] deals with MDA-MB-231. As to the kind of experiment: Induction of apoptosis in human MDA-MB-231 cells assessed as roundup morphology after 48 hrs by microscopic analysis. Type of assay: functional, cell-based.
Assay [5] deals with Apoptosis regulator Bcl-2 (Homo sapiens) (UniProt P10415). Description: Induction of Bcl-2 phosphorylation at Ser70 in human Hep3B cells at 160 uM after 18 hrs by Western blotting analysis. Conditions: Hep 3B2. Type of assay: cell-based. For orientation: In western blotting, separated proteins are transferred to a membrane and probed.
Chain of Apoptosis regulator Bcl-2 (Homo sapiens) (P10415 whole entry): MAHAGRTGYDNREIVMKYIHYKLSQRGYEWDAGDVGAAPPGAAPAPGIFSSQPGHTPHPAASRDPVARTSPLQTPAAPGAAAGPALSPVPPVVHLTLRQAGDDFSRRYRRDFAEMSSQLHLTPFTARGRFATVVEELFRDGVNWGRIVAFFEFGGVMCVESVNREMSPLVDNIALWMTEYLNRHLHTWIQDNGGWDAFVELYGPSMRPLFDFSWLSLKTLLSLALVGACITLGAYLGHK
For assay [6], the target named is Cyclin-dependent kinase 1 (Homo sapiens) (UniProt P06493). As to the kind of experiment: Inhibition of CDC2 phosphorylation at Tyr15 in human Hep3B cells at 160 uM after 18 hrs by Western blotting analysis. It is filed as cell-based. Conditions: Hep 3B2.
Chain of Cyclin-dependent kinase 1 (Homo sapiens) (P06493 whole entry, looked up): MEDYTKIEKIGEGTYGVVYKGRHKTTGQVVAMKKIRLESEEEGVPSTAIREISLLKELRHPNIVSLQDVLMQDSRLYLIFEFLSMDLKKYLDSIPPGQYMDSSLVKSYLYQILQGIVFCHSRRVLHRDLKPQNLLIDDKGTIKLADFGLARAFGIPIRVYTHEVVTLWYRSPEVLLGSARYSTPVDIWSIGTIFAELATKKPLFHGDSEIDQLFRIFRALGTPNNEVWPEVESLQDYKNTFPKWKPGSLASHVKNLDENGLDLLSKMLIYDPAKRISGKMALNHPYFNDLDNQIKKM
Assay [7] concerns Hep 3B2. Description: Induction of apoptosis in human Hep3B cells assessed as induction of caspase-3 cleavage at 27 to 160 uM after 18 hrs by Western blotting analysis. Type of assay: functional, cell-based.
Assay [8] deals with Hep 3B2. Description: Induction of apoptosis in human Hep3B cells assessed as induction of PARP cleavage at 27 to 160 uM after 18 hrs by Western blotting analysis. It is filed as functional, cell-based.
Assay [9] in a line: Cell cycle arrest in human Hep3B cells assessed as accumulation at subG1 phase at 0.5 uM after 24 hrs by flow cytometry (reference value: 1.14%). Type of assay: functional, cell-based. Conditions: Hep 3B2. A general note: In flow cytometry, cells or beads pass a laser one at a time.
Assay [10] is described as follows: Cell cycle arrest in human Hep3B cells assessed as accumulation at subG1 phase at 27 uM after 24 hrs by flow cytometry (reference value: 1.14%). It is filed as functional, cell-based. Conditions: Hep 3B2.
Assay [11] in a line: Cell cycle arrest in human Hep3B cells assessed as accumulation at subG1 phase at 80 uM after 24 hrs by flow cytometry (reference value: 1.14%). It is filed as functional, cell-based. Conditions: Hep 3B2.
Assay [12] is described as follows: Cell cycle arrest in human Hep3B cells assessed as accumulation at subG1 phase at 160 uM after 24 hrs by flow cytometry (reference value: 1.14%). Type of assay: functional, cell-based. The settings on record: Hep 3B2.
Assay [13] can be described thus: Cell cycle arrest in human Hep3B cells assessed as accumulation at G0/G1 phase at 27 uM after 24 hrs by flow cytometry (reference value: 52.99%). It is filed as functional, cell-based. Conditions: Hep 3B2.
Assay [14] is described as follows: Cell cycle arrest in human Hep3B cells assessed as accumulation at G0/G1 phase at 80 uM after 24 hrs by flow cytometry (reference value: 52.99%). The settings on record: Hep 3B2. Type of assay: functional, cell-based.
A short description of assay [15]: Cell cycle arrest in human Hep3B cells assessed as accumulation at G0/G1 phase at 160 uM after 24 hrs by flow cytometry (reference value: 52.99%). It is filed as functional, cell-based. Conditions: Hep 3B2.
A short description of assay [16]: Cell cycle arrest in human Hep3B cells assessed as accumulation at S phase at 0.5 uM after 24 hrs by flow cytometry (reference value: 11.18%). Type of assay: functional, cell-based. The settings on record: Hep 3B2.
Assay [17] in a line: Cell cycle arrest in human Hep3B cells assessed as accumulation at S phase at 27 uM after 24 hrs by flow cytometry (reference value: 11.18%). Type of assay: functional, cell-based. The settings on record: Hep 3B2.
The nature of assay [18]: Cell cycle arrest in human Hep3B cells assessed as accumulation at S phase at 80 uM after 24 hrs by flow cytometry (reference value: 11.18%). It is filed as functional, cell-based. The settings on record: Hep 3B2.
A short description of assay [19]: Cell cycle arrest in human Hep3B cells assessed as accumulation at S phase at 160 uM after 24 hrs by flow cytometry (reference value: 11.18%). It is filed as functional, cell-based. The settings on record: Hep 3B2.
The nature of assay [20]: Cell cycle arrest in human Hep3B cells assessed as accumulation at G2/M phase at 0.5 uM after 24 hrs by flow cytometry (reference value: 24.37%). It is filed as functional, cell-based. The settings on record: Hep 3B2.
Assay [21] can be described thus: Cell cycle arrest in human Hep3B cells assessed as accumulation at G2/M phase at 27 uM after 24 hrs by flow cytometry (reference value: 24.37%). It is filed as functional, cell-based. Conditions: Hep 3B2.
Assay [22] is described as follows: Cell cycle arrest in human Hep3B cells assessed as accumulation at G2/M phase at 80 uM after 24 hrs by flow cytometry (reference value: 24.37%). Conditions: Hep 3B2. Type of assay: functional, cell-based.
Assay [23] can be described thus: Cell cycle arrest in human Hep3B cells assessed as accumulation at G2/M phase at 160 uM after 24 hrs by flow cytometry (reference value: 24.37%). Conditions: Hep 3B2. Type of assay: functional, cell-based.
In assay [24] the test system is HeLa. Description: Up-regulation of geminin-GFP in human HeLa cells at 160 uM after 18 hrs by FUCCI analysis. It is filed as functional, cell-based.
Assay [25] concerns Hep 3B2. Description: Disruption of alpha-tubulin networks in human Hep3B cells at 80 to 160 uM after 18 hrs by immunofluorescence assay. It is filed as cell-based.
For assay [26], the system named is Hep 3B2. Description: Induction of chromosome mislocalization in human Hep3B cells at 80 to 160 uM after 18 hrs by immunofluorescence assay. Type of assay: functional, cell-based.
The species entered for the next assay is Homo sapiens. Description: Induction of Histone H3 Ser10 phosphorylation in human […] cells at 80 to 160 uM after 18 hrs by immunofluorescence staining. Type of assay: cell-based.
In assay [27] the test system is Hep 3B2. Description: Induction of chromosome misalignment in nucleus of human Hep3B cells at 80 to 160 uM after 18 hrs by immunofluorescence staining. Type of assay: functional, cell-based.
A short description of assay [28]: Cell cycle arrest in human Hep3B cells assessed as accumulation at M phase at 80 uM after 24 hrs by flow cytometry (reference value: 6.24 +/- 2.14%). Type of assay: functional, cell-based. Conditions: Hep 3B2.
Assay [29] in a line: Cell cycle arrest in human Hep3B cells assessed as accumulation at M phase at 160 uM after 24 hrs by flow cytometry (reference value: 6.24 +/- 2.14%). The settings on record: Hep 3B2. Type of assay: functional, cell-based.
For assay [30], the target named is T1, Tubulin (Sus scrofa) (UniProt P02554+P02550). As to the kind of experiment: Induction of porcine tubulin polymerization at 80 uM measured for every 1 min for 60 mins by spectrophotometry. It is filed as protein assay.
T1 sequence (P02550 whole entry, looked up): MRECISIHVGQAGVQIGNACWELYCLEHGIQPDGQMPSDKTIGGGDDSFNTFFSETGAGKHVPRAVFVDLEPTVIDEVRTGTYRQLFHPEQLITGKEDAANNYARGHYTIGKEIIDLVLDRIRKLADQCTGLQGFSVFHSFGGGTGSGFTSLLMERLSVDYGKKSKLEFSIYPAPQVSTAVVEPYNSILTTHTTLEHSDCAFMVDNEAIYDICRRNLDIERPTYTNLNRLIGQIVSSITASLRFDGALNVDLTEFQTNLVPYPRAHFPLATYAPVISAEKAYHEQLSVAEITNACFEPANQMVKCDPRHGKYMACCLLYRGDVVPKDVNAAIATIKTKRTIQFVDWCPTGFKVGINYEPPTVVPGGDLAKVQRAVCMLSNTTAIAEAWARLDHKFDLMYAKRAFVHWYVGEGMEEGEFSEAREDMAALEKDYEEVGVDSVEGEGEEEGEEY
T1 sequence (P02554 whole entry, looked up): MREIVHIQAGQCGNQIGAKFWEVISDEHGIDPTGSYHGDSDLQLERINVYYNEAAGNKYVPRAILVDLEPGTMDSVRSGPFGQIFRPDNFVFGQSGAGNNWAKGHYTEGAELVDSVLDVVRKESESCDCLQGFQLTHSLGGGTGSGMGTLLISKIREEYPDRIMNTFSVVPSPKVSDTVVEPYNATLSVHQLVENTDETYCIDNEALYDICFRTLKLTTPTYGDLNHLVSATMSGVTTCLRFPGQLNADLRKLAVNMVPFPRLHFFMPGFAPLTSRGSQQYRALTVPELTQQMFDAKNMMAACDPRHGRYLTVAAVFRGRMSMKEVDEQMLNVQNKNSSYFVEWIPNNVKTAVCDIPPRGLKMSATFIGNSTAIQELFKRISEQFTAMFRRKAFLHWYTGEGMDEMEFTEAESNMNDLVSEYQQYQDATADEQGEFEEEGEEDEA
The target of assay [31] is T1, Tubulin (Sus scrofa). Description: Induction of porcine tubulin polymerization at 160 uM measured for every 1 min for 60 mins by spectrophotometry. Type of assay: protein assay.
The nature of assay [32]: Binding affinity to porcine brain alphabeta-tubulin using ForteBio's Octet system. Type of assay: tissue-based, Sus scrofa. (In general: In BLI a coated tip is dipped into the sample, and binding shifts an interference pattern.)
Assay [33] deals with HeLa. Description: Inhibition of microtubule dynamics in human HeLa cells expressing EB1-EGFP at 80 to 160 uM after 1 min by image time-lapse analysis. Type of assay: functional, cell-based.
Assay [34] has as its system Hep 3B2. As to the kind of experiment: Disruption of alpha-tubulin networks in human Hep3B cells assessed as increasing acetylated-tubulin signal at 80 to 160 uM after 18 hrs by immunofluorescence assay. It is filed as cell-based.
Assay [35] deals with Hep 3B2. Description: Disruption of alpha-tubulin networks in human Hep3B cells assessed as induction of polyglutamylated-tubulin bleb formation at 80 to 160 uM after 18 hrs by immunofluorescence assay. It is filed as cell-based.
Assay [36] can be described thus: Cell cycle arrest in human Hep3B cells assessed as increased the phosphorylation of histone H3 at 80 to 160 uM after 24 hrs by immunofluorescence assay. It is filed as functional, cell-based. The settings on record: Hep 3B2.
Assay [37] can be described thus: Cell cycle arrest in human Hep3B cells assessed as induction of chromosome misalignment in nuclei at 80 to 160 uM after 24 hrs by immunofluorescence assay. Type of assay: functional, cell-based. Conditions: Hep 3B2.
The test system of assay [38] is Hep 3B2. Description: Disruption of alpha-tubulin networks in human Hep3B cells at 10 nM after 18 hrs by immunofluorescence assay. Type of assay: cell-based.
In assay [39] the test system is Hep 3B2. As to the kind of experiment: Disruption of alpha-tubulin networks in human Hep3B cells assessed as increasing acetylated-tubulin signal at 10 nM after 18 hrs by immunofluorescence assay. It is filed as cell-based.
Assay [40] relates to Hep 3B2. As to the kind of experiment: Disruption of alpha-tubulin networks in human Hep3B cells assessed as induction of polyglutamylated-tubulin bleb formation at 10 nM after 18 hrs by immunofluorescence assay. Type of assay: cell-based.
The next assay has as its target Tubulin (Homo sapiens) (UniProt P68371+Q9H4B7+P0DPH7+P68366+Q13509+Q71U36+P04350+Q3ZCM7+P07437+P68363+Q9BQE3+Q6PEY2+Q13885+Q9BVA1+Q9BUF5). Description: Disruption of gamma-tubulin networks in human Hep3B cells at 10 nM after 18 hrs by immunofluorescence assay. It is filed as cell-based. The settings on record: Hep 3B2.
The nature of assay [41]: Cell cycle arrest in human Hep3B cells assessed as induction of prometaphase arrest at 10 nM after 24 hrs by immunofluorescence assay. Type of assay: functional, cell-based. Conditions: Hep 3B2.
A short description of assay [42]: Cell cycle arrest in human Hep3B cells assessed as increase of cells with misaligned chromosomes at 10 nM after 24 hrs by immunofluorescence assay. Conditions: Hep 3B2. It is filed as functional, cell-based.

Structures are written as SMILES. Calls of active or inactive are those of the source. No cut-off for these calls is given here.

For the molecule `CCC(C)[C@@H]1NC(=O)[C@@H](Cc2ccccc2)n2c1nc1c(c2=O)C=CC=CO1` (some centres undefined) [PROTUBOXEPIN A], the Activity entry in the assay with Hep 3B2 [1] is “Dose-dependent effect”; with Hep 3B2 [2], “Dose-dependent effect”; in the assay with MDA-MB-231 [3], “Dose-dependent effect”; in the assay on MDA-MB-231 [4], “Dose-dependent effect”; in assay [9], 7%; in assay [10] it was 2.26%. The Activity stood at 6.12% in assay [11]; 20.8% in assay [12]; 49.1% in assay [13]; 41.9% in assay [14]; 23.7% in assay [15]; 7.31% in [16]. For the same molecule, the Activity worked out at 10.1% in assay [17]; 10.8% in [18]; 7.44% in assay [19]; 20.5% in [20]; 26% in [21]; 34.4% in [22]. The Activity stood at 46.7% in assay [23], 18.8% in [28] and 39.5% in assay [29]. The outcome (in [5]; in the assay with Hep 3B2 [7]; in the assay with Hep 3B2 [8]; in the assay with HeLa [24]; in the assay on Hep 3B2 [25]; with Hep 3B2 [26]) was Active. The outcome in the assay filed under Homo sapiens, with Hep 3B2 [27], at Tubulin (Sus scrofa) [30], on Tubulin (Sus scrofa) [31], with Hep 3B2 [34] and with Hep 3B2 [35] was Active. Also, the result in assay [36] and in assay [37] was Active. The inhibition result (in [6]; in the assay on HeLa [33]) was “Active” in each case. The molecule further gave a Kd in assay [32] of 71.3 µM.

`CC(=O)O[C@H]1C(=O)[C@@]2(C)[C@H]([C@H](OC(=O)c3ccccc3)[C@]3(O)C[C@H](OC(=O)[C@H](O)[C@@H](NC(=O)c4ccccc4)c4ccccc4)C(C)=C1C3(C)C)[C@]1(OC(C)=O)CO[C@@H]1C[C@@H]2O`: the result (in the assay on Hep 3B2 [38]; with Hep 3B2 [39]; in the assay on Hep 3B2 [40]; at Tubulin (Homo sapiens); in assay [41]; in assay [42]) was Active.
